Key:
[1] = biological target: T1, polypeptide consisting of the amino acid sequence of SEQ ID NO: 2 (Homo sapiens, UniProt Q9HCF6, R1695Q); assay: Calcium influx with calcium-sensitive fluorescent reagent (Fluo3-AM, FLIPR) in HEK293 transformants; type: cell-based; details: for EC50: method of Example 6, read-out: EC50 of activation (calcium influx)
T1 construct: expressed in transfected cells
Text: (§1) To detect a channel activity of the polypeptide consisting of the amino acid sequence of SEQ ID NO: 2, animal cells were transfected with the expression vector pcDNA3.1-MLSN2 obtained in Example 1 to express the polypeptide. The expression vector pcDNA3.1-MLSN2 obtained in Example 1 and reagents for transfection (LIPOFECTAMINE or LIPOFECTAMINE2000; Invitrogen) were used to transform human embryonic kidney derived HEK293 cells (ATCC No.: CRL-1573) and induce the expression of the polypeptide consisting of the amino acid sequence of SEQ ID NO: 2. The cells transfected with LIPOFECTAMINE were used in Examples 4 and 5, and the cells transfected with LIPOFECTAMINE2000 were used in Examples 6, 7, and 16.
(§2) The transformants (4×10^4 cells) obtained in Example 3 were incubated at 37° C. for an hour in the presence of a calcium-sensitive fluorescent reagent (Fluo3-AM; DOJINDO), and the reagent was incorporated into the cells. The cells were washed with a physiological saline to remove the reagent not incorporated. A physiological saline supplemented with PS (final concentration=10 μmol/L) was added to the treated cells, and a time course of fluorescence emitted from the cells was measured using an automated fluorescence detector (FLIPR; Molecular Device). As controls, the same procedures were repeated, except that HEK293 cells transfected with pcDNA3.1(+) (i.e., control cells not expressing the polypeptide of SEQ ID NO: 2) were used, or except that a physiological saline without PS was used.
A screening of compounds (activating agents) capable of activating the polypeptide consisting of the amino acid sequence of SEQ ID NO: 2 was carried out. As an index of activation, a calcium influx into cells was detected by using a calcium-sensitive fluorescent reagent, more particularly, in accordance to the method described in Example 6.

[2] = test system: primary cultured neurons derived from rat cerebral cortex; assay: Calcium influx in primary cultured neurons derived from rat cerebral cortex; type: cell-based
Text: (§3) A pregnant rat was anesthetized with diethyl ether, and the chest (heart) was dissected to sacrifice the rat by exsanguination. An abdomen was opened, and the uterus was dissected. After a fetus was sterilized with rubbing alcohol in a clean bench, the whole brain was dissected and placed in a petri dish containing a culture medium for neurons (SUMILON; Sumitomo Bakelite). The cerebral cortex and the hippocampus were dissected with fine forceps under a stereomicroscope, and transferred to 50-mL tubes independently. Each tube was allowed to stand, to precipitate each tissue, and each supernatant was removed by suction. A solution for cell dissocition [phosphate buffered saline (PBS) supplemented with 1% papain, 150 U/mL DNase I, 0.02% L-cysteine, 0.02% bovine serum albumin (BSA), and 0.5% glucose] was added to each tube, incubated at 37° C. for 15 minutes, and centrifuged (1000 rpm, 4° C., 5 minutes). Each supernatant was removed by suction, and 10 mL of a serum-free medium was added to each tube. The whole in each tube was dispersed by pipetting several times, and cell debris was removed through a filter to obtain each cell suspension.
This example was carried out in accordance with known methods (Yoshihisa Kudo ed., Jikken Igaku, Supplement “Saibo-nai karushiumu jikken purotokoru”, 1996, Youdo-sha), except for the following procedures.
A time course of fluorescence emitted from cells was measured in accordance with the method described in Example 6, except that the primary cultured neurons (4×10^4 cells) derived from the rat brain (cerebral cortex), obtained in Example 13, were cultured for a week and used, and that the final concentration of PS was 10 μmol/L or 50 μmol/L. As a control, a physiological saline without PS was used.
Any one of compounds A, B, C, and D, and PS was applied to primary cultured neurons derived from the rat cerebral cortex obtained in Example 13, and a calcium influx into the neurons was measured. More particularly, the measurement was carried out in accordance with the method described in Example 14, except that the number of cells was 1×10^5 cells.

[3] = test system: HEK cells not expressing the polypeptide of SEQ ID NO: 2; assay: Calcium influx (Fluo3-AM, FLIPR) in control HEK293 cells; type: cell-based, human; details: for increase in fluorescent intensity: negative control cells
Procedure: as §2
Various compounds were examined, and, as a compound showing an increase in fluorescent intensity, N-[3-(2,6-dichlorophenyl)-5-methylisoxazole-4-yl]-N′-ethyl-N-methyl-N′-phenylurea (code no. SPB 00071; MAYBRIDGE), 3-(2,6-difluorophenyl)-4-(piperidine-1-ylmethyl)-1,3-thiazole-2(3H)-thion (code no. MS 1368; MERLIN), 3-(2,6-difluorophenyl)-4-(pyrrolidine-1-ylmethyl)-1,3-thiazole-2(3H)-thion (code no. MS 1370; MERLIN), and N-(2-acetyl-3-thienyl)-2-[(2-chloro-6-fluorobenzyl)sulfanil]acetamide (code no. GK 00678; Ryan Scientific) (hereinafter referred to as compounds A, B, C, and D, respectively) were found.

[4] = test system: primary cultured neurons derived from the rat hippocampus; assay: Spontaneous excitatory postsynaptic currents (sEPSCs) by whole-cell patch-clamp in primary cultured neurons; type: cell-based; details: voltage-clamped at −60 mV
Text: as §3
To confirm the effects of the activating agents on improving the memory, improving learning ability, and/or antidementia, any one of the compounds A, B, C, and D, which were found in Example 16 and can activate the polypeptide consisting of the amino acid sequence of SEQ ID NO: 2, was applied to the neurons to examine an activity of enhancing neurotransmission in the neurons. More particularly, effects of compounds A, B, C, and D on spontaneous excitatory postsynaptic currents (sEPSCs) in primary cultured neurons derived from the rat hippocampus, obtained in Example 13, were examined by a whole-cell patch-clamp method. The sEPSCs is a change of current generated in the neurons, when synaptic vesicles located at the terminus of another cell spontaneously exocytosis a neurotransmitter, and the former cell receives the released neurotransmitter. Therefore, neurotransmission between the neurons can be measured by measuring the sEPSCs (Journal of Neurophysiology, 76, 3159-3168, 1996; The Journal of Neuroscience, 19, 5311-5321, 1999). Further, it is known that the neurotransmission is suppressed by inhibiting the sEPSCs (Journal of Neuroscience Research, 72, 116-124, 2003).
More particularly, the cells (approximately 1×10^5 cells per dish) obtained in Example 13 were plated in a culture dish having a diameter of 35 mm, and cultured for 1 to 5 weeks. As a culture medium, a culture medium for the neurons (SUMILON; Sumitomo Bakelite) was used. Other procedures for cultivation were carried out in accordance with known methods (Methods in Neuroscience vol. 2, Cell culture, P. Michael Conn ed, Academic Press, Inc. 1990). The cell was voltage-clamped at −60 mV by a whole-cell voltage-clamp method, and a whole-cell current generated when PS or each compound was applied was measured (Yasunobu Okada ed., “Shin pacchi kuranpu jikken gijyutsu hou”, Yoshioka shoten, 2001). A solution containing 140 mmol/L NaCl, 5.4 mmol/L KCl, 2 mmol/L CaCl2, 0.8 mmol/L MgCl2, 15 mmol/L glucose, 10 mmol/L HEPES-Na (pH=7.4), 20 μmol/L bicuculline, and 1 μmol/L strychnine was used as an extracellular solution. A solution containing 100 mmol/L potassium gluconate, 10 mmol/L EGTA, 5 mmol/L MgCl2, 2 mmol/L K2ATP, 0.3 mmol/L Na2GTP, and 40 mmol/L HEPES-K (pH=7.25) was used as an intracellular solution.

[5] = biological target: T1, polypeptide consisting of the amino acid sequence of SEQ ID NO: 2; assay: Whole-cell voltage-clamp detection of channel activity in transfected HEK293 cells; type: cell-based; details: n=10
Text: as §1
Each cell obtained in Example 3 was voltage-clamped by a whole-cell voltage-clamp method, and a whole-cell current generated when PS was applied was measured. […]
(§4) When PS (100 μmol/L) was extracellularly applied to the cell transfected with plasmid pcDNA3.1-MLSN2 at a holding potential of −40 mV, an inward current (−5.8±0.9, n=10) was measured. After washing the cell, PS was applid thereto at a holding potential of +40 mV, a large outward current (108.9±19.3, n=10) was measured. A current-voltage relationship was measured using a voltage ramp during the response, an outward rectifier was observed.

aged rats = details: non-patent reference 5; cited from earlier work
hippocampal slices = details: non-patent references 3, 6 and 7; cited from earlier work
[6] = test system: control cell not expressing the polypeptide of SEQ ID NO: 2; assay: Whole-cell voltage-clamp in control cell transfected with no expression vector; type: cell-based, human; details: same conditions as the transfected cell
Procedure: Each cell obtained in Example 3 was voltage-clamped by a whole-cell voltage-clamp method, and a whole-cell current generated when PS was applied was measured. A solution containing 149 mmol/L NaCl, 5 mmol/L KCl, 2 mmol/L CaCl2, 0.8 mmol/L MgCl2, and 10 mmol/L HEPES-Na (pH=7.4) was used as an extracellular solution, and a solution containing 147 mmol/L CsCl, 4.5 mmol/L EGTA, and 9 mmol/L HEPES-Cs(pH=7.2) was used as an intracellular solution.
as §4

[7] = final concentration 10 μmol/L, 1×10^5 cells

T1 sequence (Q9HCF6 154-1707 isoform Q9HCF6-2 R1670Q): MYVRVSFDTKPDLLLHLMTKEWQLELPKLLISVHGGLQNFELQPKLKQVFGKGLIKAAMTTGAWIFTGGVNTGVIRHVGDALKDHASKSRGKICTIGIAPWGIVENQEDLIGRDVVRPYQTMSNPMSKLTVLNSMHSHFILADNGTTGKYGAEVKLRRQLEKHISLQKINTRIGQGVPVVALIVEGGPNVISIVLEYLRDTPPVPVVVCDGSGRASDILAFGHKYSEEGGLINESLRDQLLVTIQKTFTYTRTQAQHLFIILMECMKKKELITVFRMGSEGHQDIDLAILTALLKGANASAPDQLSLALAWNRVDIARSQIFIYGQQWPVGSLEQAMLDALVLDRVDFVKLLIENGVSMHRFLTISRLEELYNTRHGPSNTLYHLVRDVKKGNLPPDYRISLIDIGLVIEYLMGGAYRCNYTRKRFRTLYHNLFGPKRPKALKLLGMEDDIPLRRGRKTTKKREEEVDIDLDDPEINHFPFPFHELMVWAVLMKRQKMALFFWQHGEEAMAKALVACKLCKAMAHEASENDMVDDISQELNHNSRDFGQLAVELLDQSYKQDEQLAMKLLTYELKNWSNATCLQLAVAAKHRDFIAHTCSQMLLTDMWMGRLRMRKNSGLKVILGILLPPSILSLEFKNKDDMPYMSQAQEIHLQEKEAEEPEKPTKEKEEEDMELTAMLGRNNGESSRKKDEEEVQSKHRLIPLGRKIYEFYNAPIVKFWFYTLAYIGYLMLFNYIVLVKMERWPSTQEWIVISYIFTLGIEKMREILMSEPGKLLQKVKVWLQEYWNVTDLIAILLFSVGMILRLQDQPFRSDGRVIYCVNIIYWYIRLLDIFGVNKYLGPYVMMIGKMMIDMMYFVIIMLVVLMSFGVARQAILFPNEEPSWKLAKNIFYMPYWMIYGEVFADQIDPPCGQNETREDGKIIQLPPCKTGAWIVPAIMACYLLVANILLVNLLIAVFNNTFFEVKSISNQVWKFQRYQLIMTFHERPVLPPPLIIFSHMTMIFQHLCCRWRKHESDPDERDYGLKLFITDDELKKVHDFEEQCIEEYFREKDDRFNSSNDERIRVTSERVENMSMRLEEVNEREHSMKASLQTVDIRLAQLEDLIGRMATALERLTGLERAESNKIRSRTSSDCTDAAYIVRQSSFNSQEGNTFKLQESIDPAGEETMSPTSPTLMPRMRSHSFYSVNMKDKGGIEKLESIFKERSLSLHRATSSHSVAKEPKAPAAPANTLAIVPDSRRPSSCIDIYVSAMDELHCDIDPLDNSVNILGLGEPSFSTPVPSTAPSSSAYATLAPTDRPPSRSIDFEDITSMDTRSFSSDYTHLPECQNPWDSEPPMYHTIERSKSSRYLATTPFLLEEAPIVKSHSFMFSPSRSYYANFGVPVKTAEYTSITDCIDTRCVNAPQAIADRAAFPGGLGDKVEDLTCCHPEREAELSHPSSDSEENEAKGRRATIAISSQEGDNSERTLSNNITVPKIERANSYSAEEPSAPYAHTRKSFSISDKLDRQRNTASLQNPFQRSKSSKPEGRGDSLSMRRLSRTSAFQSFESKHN

Compound	EC50 [1] [µM]	increase in fluorescent intensity (calcium influx) [2, 7]	increase in fluorescent intensity [3]	enhancement of sEPSCs ([4]; 10 μmol/L)	enhancement of sEPSCs ([4]; 1 μmol/L)	increase in fluorescent intensity (calcium influx) ([1]; final concentration 10 μmol/L, immediately after addition)	inward current ([5]; PS 100 μmol/L applied extracellularly, holding potential −40 mV)	outward current ([5]; PS applied after washing, holding potential +40 mV)	increase in fluorescent intensity (calcium influx) ([2]; 10 μmol/L, 4×10^4 cells cultured for a week)	increase in fluorescent intensity (calcium influx) ([2]; 50 μmol/L, 4×10^4 cells cultured for a week)	memory and learning ability (aged rats)	fluorescent intensity (calcium influx) ([3]; PS 10 μmol/L, HEK293 cells transfected with pcDNA3.1(+))	neurotransmission (acetylcholine release, hippocampal spike frequency, LTP) (hippocampal slices)	whole-cell currents on PS application [6]
CCN(C(=O)N(C)c1c(-c2c(Cl)cccc2Cl)noc1C)c1ccccc1 [compound A, N-[3-(2,6-dichlorophenyl)-5-methylisoxazole-4-yl]-N′-ethyl-N-methyl-N′-phenylurea]	9.8	an increase in fluorescent intensity was detected	such an increase in fluorescent intensity was not detected	the enhancement of sEPSCs was detected										
Fc1cccc(F)c1-n1c(CN2CCCCC2)csc1=S [compound B, 3-(2,6-difluorophenyl)-4-(piperidine-1-ylmethyl)-1,3-thiazole-2(3H)-thion]	6.8	an increase in fluorescent intensity was detected	such an increase in fluorescent intensity was not detected	the enhancement of sEPSCs was detected										
Fc1cccc(F)c1-n1c(CN2CCCC2)csc1=S [compound C, 3-(2,6-difluorophenyl)-4-(pyrrolidine-1-ylmethyl)-1,3-thiazole-2(3H)-thion]	1.9	an increase in fluorescent intensity was detected	such an increase in fluorescent intensity was not detected	the enhancement of sEPSCs was detected										
CC(=O)c1sccc1NC(=O)CSCc1c(F)cccc1Cl [compound D, N-(2-acetyl-3-thienyl)-2-[(2-chloro-6-fluorobenzyl)sulfanil]acetamide]	3.5	an increase in fluorescent intensity was detected	such an increase in fluorescent intensity was not detected		the enhancement of sEPSCs was detected									
Pregnenolone sulfate [PS, reference compound]		an increase in fluorescent intensity was detected		the enhancement of sEPSCs was similarly detected		approximately 10,000 counts	−5.8±0.9	108.9±19.3	an increase in fluorescent intensity was detected	an increase in fluorescent intensity was detected	the memory and learning ability were improved	approximately 0 count	enhancement of neurotransmission	such currents were not observed
